Source: patent US10104890B2, “Compositions and methods for controlling pesticide resistant pests” (Rothamsted Research Limited, priority 2011, dated 2018)

Tested on: Myzus persicae clone 5191A
Assay type: in vivo
Settings: for LC50 (lethal concentration to kill 50% of the population): LC50 of imidacloprid, alone or after 5 h pre-treatment with 0.25 μL of 1 g L−1 synergist, apterous aphids, topical, scored 72 h after treatment, probit analysis; for SF = synergism factor (LC50 unsynergised/LC50 synergised): with imidacloprid, 1 g L−1 synergist, 5 h pre-treatment, clone 5191A
Description: Aphids for bioassays were reared on Chinese cabbage leaves (Brassica rapa L. var. Pekinensis c.v Wong Bok) (Brassicaceae) in small plastic box-cages (Blackman boxes) (Stewart Plastics Ltd, Surrey, UK) maintained at 18±2° C. with a 16 h light: 8 h dark photoperiod. Each box contained two adult aphids placed on a leaf and left for 5 days to produce nymphs. After the 5th day the adults were removed and their esterase levels determined to ensure that no contamination or loss of esterase expression (reversion) among the different clones had occurred during the rearing process. After approximately 13-15 days adults were used for bioassays.
Clone 5191A was collected from tobacco in Greece in 2007, and established from a single parthenogenetic female.
Apterous aphids were transferred from Blackman boxes (section 2.1.1) to the abaxial surface of Chinese cabbage leaf discs (approximately 10 adults per leaf disc) held on 1% agar in plastic containers (4 cm in diameter, A.W. Gregory & Co Limited, Kent, UK). The upper edge of each container was coated with Fluon® (Whitford Plastics, Cheshire, UK) to prevent aphid escape from the leaf surface. Netted lids were added to ensure apterous aphids could not escape. After allowing 30 min for the aphids to settle, each was dosed with 0.25 μL of 1 g L^−1 synergist dissolved in acetone or acetone only using a Burkard microapplicator (Burkhard Scientific, Middx, UK). Synergist concentrations chosen conferred no significant mortality compared to the acetone control treatment in preliminary bioassays. Five hours later, aphids were further treated with 0.25 μL imidacloprid in acetone at a range of concentrations, at least 3 replicates per concentration per bioassay. Controls were treated with 0.25 μL of acetone or 1 g L^−1 synergist in acetone and after 5 h with a further 0.25 μL of acetone.
Treated aphids were kept at 18±2° C. and 16 h light: 8 h dark photoperiod and scored 72 h after treatment. Aphids incapable of co-ordinated movement (after gentle touching with a paint brush if necessary) were scored as dead. All bioassays were performed a minimum of three times.
Pooled raw data from at least three separate bioassays were analysed by probit analysis using the statistical programme PC Polo Plus (LeOra, Software, Berkeley, USA). Polo Plus programme calculated the concentrations required to kill 50% of the population (LC50), 95% confidence limits (CL95%), slopes with standard errors (SE), chi-square (χ2) and degrees of freedom (df). Natural response was also estimated when control mortality occurred.

O=[N+]([O-])NC1=NCCN1Cc1ccc(Cl)nc1 [imidacloprid]
LC50 (lethal concentration to kill 50% of the population): 90.4 ppm

CC#CCOc1ccc2c(c1)OCO2 [EN 163]
LC50 (lethal concentration to kill 50% of the population): 2.98 ppm | SF = synergism factor (LC50 unsynergised/LC50 synergised): 30.3

CCCCOCCOCCOCc1cc2c(cc1CCC)CCO2 [EN 16-5]
LC50 (lethal concentration to kill 50% of the population): 12.2 ppm | SF = synergism factor (LC50 unsynergised/LC50 synergised): 7.41

CC#COCc1ccc2c(c1)CCO2 [EN 16-18]
LC50 (lethal concentration to kill 50% of the population): 18.4 ppm | SF = synergism factor (LC50 unsynergised/LC50 synergised): 4.91

CCCCOCCOCCOCc1cc2c(cc1CCC)CCC2 [EN 14-5]
LC50 (lethal concentration to kill 50% of the population): 41.5 ppm | SF = synergism factor (LC50 unsynergised/LC50 synergised): 2.17

CCCCCCCCCCCCc1ccc2c(c1)OCO2 [EN 129]
LC50 (lethal concentration to kill 50% of the population): 28.4 ppm | SF = synergism factor (LC50 unsynergised/LC50 synergised): 3.18

CCCCOCCOCCOCc1cc2c(cc1CCC)OCO2 [PBO, piperonyl butoxide]
LC50 (lethal concentration to kill 50% of the population): 6.22 ppm | SF = synergism factor (LC50 unsynergised/LC50 synergised): 14.5

CC#CCOCc1cc2c(cc1CCC)OCO2 [EN 126]
LC50 (lethal concentration to kill 50% of the population): 0.31 ppm | SF = synergism factor (LC50 unsynergised/LC50 synergised): 292

CC#CCOc1cc2c(cc1CCC)CCO2 [EN 16-17]
LC50 (lethal concentration to kill 50% of the population): 7.11 ppm | SF = synergism factor (LC50 unsynergised/LC50 synergised): 12.7

CC#CCOc1cc2c(cc1CCC)OCO2 [EN 164]
LC50 (lethal concentration to kill 50% of the population): 1.25 ppm | SF = synergism factor (LC50 unsynergised/LC50 synergised): 72.4

CC#CCO[C@H](C)c1ccc(OC)c(OC)c1 [EN 25-10]
LC50 (lethal concentration to kill 50% of the population): 4.88 ppm | SF = synergism factor (LC50 unsynergised/LC50 synergised): 18.5
